Laboratory results taken from US11932605B1, “9-(4-nitrobenzylidene)-4-(4-nitrophenyl)-3-cyano-2-methoxy-6,7,8,9-tetrahydro-5h-cyclohepta[b]pyridine as an antimicrobial compound” (KING FAISAL UNIVERSITY, priority 2023, dated 2024).

Key:
Pseudomonas aeruginosa = test: Antimicrobial testing by agar dilution, Pseudomonas aeruginosa; type: cell-based; details: after 10, 20, 40 and 60 min at all dilutions 1:100, 1:200, 1:400, 1:800
Procedure: (§1) The antimicrobial properties of the 9-(4-Nitrobenzylidene)-4-(4-nitrophenyl)-3-cyano-2-methoxy-6,7,8,9-tetrahydro-5H-cyclohepta[b]pyridine was studied by the method of agar dilution. Test solutions of each compound was prepared in concentration of 1% using dimethylformamide as a solvent then they are diluted in physiological solution to obtain the final experimental dilutions 1:100, 1:200, 1:400, 1:800. The effect of these substances are compared with furacillin in a controllable study. The testing microbes used were gram positive bacteria Staphylococcus aureus, gram negative bacteria Pseudomonas aeruginosa, Escherichia coli and Candida albicans fungi were taken.
(§2) The experiments used for this survey were meat-pentonlu agar (EPA) for cultivation of bacteria and Saburo environment for fungi. Each experiment used 1 mL of test solution on each plate 500 min. Add 2 drops of emulsified with microbes feel. All experimental samples were taken from the agar after 10, 20, 40, 60 minutes in the environment on the basis of Patrk planted. Bacteria were cultivated at a temperature of 37° C. for 1 day and the mushroom was kept in a thermostat for […] at a temperature of 28° C. Then the results were checked.

Escherichia coli = test: Antimicrobial testing by agar dilution, Escherichia coli; type: cell-based; details: after 10, 20, 40 and 60 min at all dilutions 1:100, 1:200, 1:400, 1:800
Procedure: as §1, §2

Staphylococcus aureus = test: Antimicrobial testing by agar dilution, Staphylococcus aureus; type: cell-based; details: after 10, 20, 40 and 60 min at all dilutions 1:100, 1:200, 1:400, 1:800
Procedure: as §1, §2

Candida albicans = test: Antimicrobial testing by agar dilution, Candida albicans; type: cell-based; details: after 10, 20, 40 and 60 min at all dilutions 1:100, 1:200, 1:400, 1:800
Procedure: as §1, §2

COc1nc2c(c(-c3ccc([N+](=O)[O-])cc3)c1C#N)CCCC/C2=C\c1ccc([N+](=O)[O-])cc1 [9-(4-nitrobenzylidene)-4-(4-nitrophenyl)-3-cyano-2-methoxy-6,7,8,9-tetrahydro-5H-cyclohepta[b]pyridine]
melting point: 133 to 135 °C | inhibition activity (Pseudomonas aeruginosa): most higher inhibition activity | inhibition activity (Escherichia coli): most higher inhibition activity | inhibition activity (Staphylococcus aureus): most higher inhibition activity | inhibition activity (Candida albicans): most higher inhibition activity
